Laboratory results: patent publication US20260242419A1, “A CYCLIC PEPTIDE FOR TRAPPING INTERLEUKIN-1 BETA” (Merck Sharp & Dohme LLC, priority 2023, published 2026)
Starred links: 1 amine or outer side, 2 acyl side, 3 side chain; linkers in the order of their positions; H or OH if unused. Non-standard residues stand in square brackets, D forms with d. Residues, ends and D or L forms follow the SMILES beside them. dPro(4R-(4-pyridylmethyl)) = O=C(O)[C@H]1C[C@@H](Cc2ccncc2)CN1; Trp(βS-Me,4-F) = C[C@@H](c1c[nH]c2cccc(F)c12)[C@H](N)C(=O)O; Bip(4'-COOH) = N[C@@H](Cc1ccc(-c2ccc(C(=O)O)cc2)cc1)C(=O)O; Ala(1-bicyclo(1.1.1)pentyl) = N[C@@H](CC12CC(C1)C2)C(=O)O; Phe(4-(4-pyridyl)) = N[C@@H](Cc1ccc(-c2ccncc2)cc1)C(=O)O; dPro(4R-Bzl(4-F)) = O=C(O)[C@H]1C[C@@H](Cc2ccc(F)cc2)CN1; dPro(3S-(4-F-Bn)) = O=C(O)[C@@H]1NCC[C@@H]1Cc1ccc(F)cc1; X31 = O=C(O)c1ccc([C@@H](O)[C@H](N[*:1])C(=O)[*:2])cc1; X27 = COc1ncc(-c2ccc(C[C@H](N[*:1])C(=O)[*:2])cc2)cn1; X32 = Cn1cnc(-c2ccc(C[C@H](N[*:1])C(=O)[*:2])cc2)c1; X12 = Cn1ccnc1-c1ccc(C[C@H](N[*:1])C(=O)[*:2])cc1; X40 = O=C([C@H](Cc1ccc(-c2cncnc2)cc1)N[*:1])[*:2]; X4 = O=C([C@H]1[C@@H](Cc2ccncc2)CCN1[*:1])[*:2]; Ala(morpholin-4-yl) = N[C@@H](CN1CCOCC1)C(=O)O; Ala(pyrimidin-5-yl) = N[C@@H](Cc1cncnc1)C(=O)O; Phe(4-COOH) = N[C@@H](Cc1ccc(C(=O)O)cc1)C(=O)O; X30 = O=C([C@@H](N[*:1])[C@H](O)c1ccncc1)[*:2]; Pro(cis-4-F) = O=C(O)[C@@H]1C[C@H](F)CN1; Phe(4-F) = N[C@@H](Cc1ccc(F)cc1)C(=O)O; X6 = O=C([C@H](Cc1ccncn1)N[*:1])[*:2]; d(αMeD) = C[C@@](N)(CC(=O)O)C(=O)O; 4Pal = N[C@@H](Cc1ccncc1)C(=O)O; Dab = NCC[C@H](N)C(=O)O; Aib = CC(C)(N)C(=O)O

molecular target: T1, IL-1β (Homo sapiens, UniProt P01584); assay: IL-6 assay in MRC5 cells: inhibition of IL-1β induced IL-6 secretion (AlphaLISA); format: cell-based; details: inhibition of IL-1β induced IL-6 secretion in MRC5 cells; compound pre-incubated 1 hour with recombinant human IL-1β; read-out: MRC5 IC50
T1 construct: purchased BioLegend 579404
T1 sequence (P01584 117-269): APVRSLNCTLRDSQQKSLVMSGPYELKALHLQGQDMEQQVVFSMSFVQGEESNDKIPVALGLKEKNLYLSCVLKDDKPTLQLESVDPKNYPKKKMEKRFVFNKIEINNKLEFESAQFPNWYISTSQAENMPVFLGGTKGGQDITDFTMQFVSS
In short: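 Compound was pre-incubated 1 h at ambient temperature with recombinant human IL-1β at 2λ EC80 before adding human lung fibroblast MRC5 cells (3000/well) in EMEM with 0.025% BSA. After overnight culture at 37 °C, 5% CO2, secreted IL-6 in conditioned medium was measured by AlphaLISA; IC50 from 4-parameter logistic fits.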

Compound	IC50 [nM]
C[C@@H](c1c[nH]c2cccc(F)c12)[C@@H]1NC(=O)[C@@H]2C[C@H](F)CN2C(=O)CNC(=O)[C@H](Cc2ccc(C(=O)O)cc2)NC(=O)[C@H]([C@H](O)c2ccncc2)NC(=O)[C@H](Cc2ccc(-c3ccc(C(=O)O)cc3)cc2)NC(=O)[C@H]2C[C@@H](Cc3ccc(F)cc3)CN2C(=O)CNC(=O)[C@H](CCN)NC(=O)[C@H](CCC(N)=O)NC(=O)[C@H](Cc2cncnc2)NC(=O)C(C)(C)NC(=O)[C@H](Cc2c[nH]c3ccccc23)NC(=O)[C@H](CO)NC(=O)C(C)(C)NC1=O [Example 274] (cyclo([Bip(4'-COOH)][X30][Phe(4-COOH)]G[Pro(cis-4-F)][Trp(βS-Me,4-F)][Aib]SW[Aib][Ala(pyrimidin-5-yl)]Q[Dab]G[dPro(4R-Bzl(4-F))]))	0.026
C[C@@H](c1c[nH]c2cccc(F)c12)[C@@H]1NC(=O)[C@@H]2C[C@H](F)CN2C(=O)CNC(=O)[C@H]([C@H](O)c2ccc(C(=O)O)cc2)NC(=O)[C@H](Cc2ccncc2)NC(=O)[C@H](Cc2ccc(-c3ccc(C(=O)O)cc3)cc2)NC(=O)[C@H]2C[C@@H](Cc3ccc(F)cc3)CN2C(=O)CNC(=O)[C@H](CCN)NC(=O)[C@H](CCC(N)=O)NC(=O)[C@H](Cc2cncnc2)NC(=O)C(C)(C)NC(=O)[C@H](Cc2c[nH]c3ccccc23)NC(=O)[C@H](CO)NC(=O)C(C)(C)NC1=O [Example 275] (cyclo([Bip(4'-COOH)][4Pal][X31]G[Pro(cis-4-F)][Trp(βS-Me,4-F)][Aib]SW[Aib][Ala(pyrimidin-5-yl)]Q[Dab]G[dPro(4R-Bzl(4-F))]))	0.018
C[C@@H](c1c[nH]c2cccc(F)c12)[C@@H]1NC(=O)[C@@H]2C[C@H](F)CN2C(=O)CNC(=O)[C@H](Cc2ccc(C(=O)O)cc2)NC(=O)[C@H](Cc2ccncc2)NC(=O)[C@H](Cc2ccc(-c3ccc(C(=O)O)cc3)cc2)NC(=O)[C@H]2C[C@@H](Cc3ccc(F)cc3)CN2C(=O)CNC(=O)[C@H](CCN)NC(=O)[C@H](CCC(N)=O)NC(=O)[C@H](Cc2c[nH]cn2)NC(=O)C(C)(C)NC(=O)[C@H](Cc2c[nH]c3ccccc23)NC(=O)[C@H](CCC(=O)O)NC(=O)C(C)(C)NC1=O [Example 276] (cyclo([Bip(4'-COOH)][4Pal][Phe(4-COOH)]G[Pro(cis-4-F)][Trp(βS-Me,4-F)][Aib]EW[Aib]HQ[Dab]G[dPro(4R-Bzl(4-F))]))	0.017
C[C@@H](c1c[nH]c2cccc(F)c12)[C@@H]1NC(=O)[C@@H]2C[C@H](F)CN2C(=O)CNC(=O)[C@H](Cc2ccc(C(=O)O)cc2)NC(=O)[C@H](Cc2ccncc2)NC(=O)[C@H](Cc2ccc(F)cc2)NC(=O)[C@H]2[C@@H](Cc3ccc(F)cc3)CCN2C(=O)CNC(=O)[C@H](CCN)NC(=O)[C@H](CCC(N)=O)NC(=O)[C@H](Cc2cncnc2)NC(=O)[C@@](C)(CC(=O)O)NC(=O)[C@H](Cc2c[nH]c3ccccc23)NC(=O)[C@H](CO)NC(=O)C(C)(C)NC1=O [Example 277] (cyclo([Phe(4-F)][4Pal][Phe(4-COOH)]G[Pro(cis-4-F)][Trp(βS-Me,4-F)][Aib]SW[d(αMeD)][Ala(pyrimidin-5-yl)]Q[Dab]G[dPro(3S-(4-F-Bn))]))	0.023
C[C@@H](c1c[nH]c2cccc(F)c12)[C@@H]1NC(=O)[C@@H]2C[C@H](F)CN2C(=O)CNC(=O)[C@H](Cc2ccc(C(=O)O)cc2)NC(=O)[C@H](Cc2ccncc2)NC(=O)[C@H](Cc2ccc(O)cc2)NC(=O)[C@H]2[C@@H](Cc3ccc(F)cc3)CCN2C(=O)CNC(=O)[C@H](CCN)NC(=O)[C@H](CCC(N)=O)NC(=O)[C@H](Cc2cncnc2)NC(=O)[C@@](C)(CC(=O)O)NC(=O)[C@H](Cc2c[nH]c3ccccc23)NC(=O)[C@H](CO)NC(=O)C(C)(C)NC1=O [Example 278] (cyclo(Y[4Pal][Phe(4-COOH)]G[Pro(cis-4-F)][Trp(βS-Me,4-F)][Aib]SW[d(αMeD)][Ala(pyrimidin-5-yl)]Q[Dab]G[dPro(3S-(4-F-Bn))]))	0.021
C[C@@H](c1c[nH]c2cccc(F)c12)[C@@H]1NC(=O)[C@@H]2C[C@H](F)CN2C(=O)CNC(=O)[C@H](Cc2ccc(C(=O)O)cc2)NC(=O)[C@H](Cc2ccncc2)NC(=O)[C@H](Cc2ccc(-c3cn(C)cn3)cc2)NC(=O)[C@H]2[C@@H](Cc3ccc(F)cc3)CCN2C(=O)CNC(=O)[C@H](CCN)NC(=O)[C@H](CCC(N)=O)NC(=O)[C@H](Cc2cncnc2)NC(=O)[C@@](C)(CC(=O)O)NC(=O)[C@H](Cc2c[nH]c3ccccc23)NC(=O)[C@H](CO)NC(=O)C(C)(C)NC1=O [Example 279] (cyclo([X32][4Pal][Phe(4-COOH)]G[Pro(cis-4-F)][Trp(βS-Me,4-F)][Aib]SW[d(αMeD)][Ala(pyrimidin-5-yl)]Q[Dab]G[dPro(3S-(4-F-Bn))]))	0.013
C[C@@H](c1c[nH]c2cccc(F)c12)[C@@H]1NC(=O)[C@@H]2C[C@H](F)CN2C(=O)CNC(=O)[C@H](Cc2ccc(C(=O)O)cc2)NC(=O)[C@H](Cc2ccncc2)NC(=O)[C@H](Cc2ccc(-c3nccn3C)cc2)NC(=O)[C@H]2[C@@H](Cc3ccc(F)cc3)CCN2C(=O)CNC(=O)[C@H](CCN)NC(=O)[C@H](CCC(N)=O)NC(=O)[C@H](Cc2cncnc2)NC(=O)[C@@](C)(CC(=O)O)NC(=O)[C@H](Cc2c[nH]c3ccccc23)NC(=O)[C@H](CO)NC(=O)C(C)(C)NC1=O [Example 280] (cyclo([X12][4Pal][Phe(4-COOH)]G[Pro(cis-4-F)][Trp(βS-Me,4-F)][Aib]SW[d(αMeD)][Ala(pyrimidin-5-yl)]Q[Dab]G[dPro(3S-(4-F-Bn))]))	0.016
COc1ncc(-c2ccc(C[C@@H]3NC(=O)[C@H]4[C@@H](Cc5ccc(F)cc5)CCN4C(=O)CNC(=O)[C@H](CCN)NC(=O)[C@H](CCC(N)=O)NC(=O)[C@H](Cc4cncnc4)NC(=O)[C@@](C)(CC(=O)O)NC(=O)[C@H](Cc4c[nH]c5ccccc45)NC(=O)[C@H](CO)NC(=O)C(C)(C)NC(=O)[C@H]([C@@H](C)c4c[nH]c5cccc(F)c45)NC(=O)[C@@H]4C[C@H](F)CN4C(=O)CNC(=O)[C@H](Cc4ccc(C(=O)O)cc4)NC(=O)[C@H](Cc4ccncc4)NC3=O)cc2)cn1 [Example 281] (cyclo([X27][4Pal][Phe(4-COOH)]G[Pro(cis-4-F)][Trp(βS-Me,4-F)][Aib]SW[d(αMeD)][Ala(pyrimidin-5-yl)]Q[Dab]G[dPro(3S-(4-F-Bn))]))	0.012
C[C@@H](c1c[nH]c2cccc(F)c12)[C@@H]1NC(=O)[C@@H]2C[C@H](F)CN2C(=O)CNC(=O)[C@H](Cc2ccc(C(=O)O)cc2)NC(=O)[C@H](Cc2ccncc2)NC(=O)[C@H](Cc2ccc(-c3cncnc3)cc2)NC(=O)[C@H]2[C@@H](Cc3ccc(F)cc3)CCN2C(=O)CNC(=O)[C@H](CCN)NC(=O)[C@H](CCC(N)=O)NC(=O)[C@H](Cc2cncnc2)NC(=O)[C@@](C)(CC(=O)O)NC(=O)[C@H](Cc2c[nH]c3ccccc23)NC(=O)[C@H](CO)NC(=O)C(C)(C)NC1=O [Example 282] (cyclo([X40][4Pal][Phe(4-COOH)]G[Pro(cis-4-F)][Trp(βS-Me,4-F)][Aib]SW[d(αMeD)][Ala(pyrimidin-5-yl)]Q[Dab]G[dPro(3S-(4-F-Bn))]))	0.014
C[C@@H](c1c[nH]c2cccc(F)c12)[C@@H]1NC(=O)[C@@H]2C[C@H](F)CN2C(=O)CNC(=O)[C@H](Cc2ccc(C(=O)O)cc2)NC(=O)[C@H](Cc2ccncc2)NC(=O)[C@H](Cc2ccc(-c3ccncc3)cc2)NC(=O)[C@H]2[C@@H](Cc3ccc(F)cc3)CCN2C(=O)CNC(=O)[C@H](CCN)NC(=O)[C@H](CCC(N)=O)NC(=O)[C@H](Cc2cncnc2)NC(=O)[C@@](C)(CC(=O)O)NC(=O)[C@H](Cc2c[nH]c3ccccc23)NC(=O)[C@H](CO)NC(=O)C(C)(C)NC1=O [Example 283] (cyclo([Phe(4-(4-pyridyl))][4Pal][Phe(4-COOH)]G[Pro(cis-4-F)][Trp(βS-Me,4-F)][Aib]SW[d(αMeD)][Ala(pyrimidin-5-yl)]Q[Dab]G[dPro(3S-(4-F-Bn))]))	0.016
C[C@@H](c1c[nH]c2cccc(F)c12)[C@@H]1NC(=O)[C@@H]2C[C@H](F)CN2C(=O)CNC(=O)[C@H](Cc2ccc(C(=O)O)cc2)NC(=O)[C@H](CC23CC(C2)C3)NC(=O)[C@H](Cc2ccc(-c3ccc(C(=O)O)cc3)cc2)NC(=O)[C@H]2[C@@H](Cc3ccncc3)CCN2C(=O)CNC(=O)[C@H](CCN)NC(=O)[C@H](CCC(N)=O)NC(=O)[C@H](Cc2ccncn2)NC(=O)[C@@](C)(CC(=O)O)NC(=O)[C@H](Cc2c[nH]c3ccccc23)NC(=O)[C@H](CO)NC(=O)C(C)(C)NC1=O [Example 284] (cyclo([Bip(4'-COOH)][Ala(1-bicyclo(1.1.1)pentyl)][Phe(4-COOH)]G[Pro(cis-4-F)][Trp(βS-Me,4-F)][Aib]SW[d(αMeD)][X6]Q[Dab]G[X4]))	0.015
C[C@@H](c1c[nH]c2cccc(F)c12)[C@@H]1NC(=O)[C@@H]2C[C@H](F)CN2C(=O)CNC(=O)[C@H](Cc2ccc(C(=O)O)cc2)NC(=O)[C@H](CC23CC(C2)C3)NC(=O)[C@H](Cc2ccc(-c3ccc(C(=O)O)cc3)cc2)NC(=O)[C@H]2C[C@@H](Cc3ccncc3)CN2C(=O)CNC(=O)[C@H](CCN)NC(=O)[C@H](CCC(N)=O)NC(=O)[C@H](Cc2ccncn2)NC(=O)[C@@](C)(CC(=O)O)NC(=O)[C@H](Cc2c[nH]c3ccccc23)NC(=O)[C@H](CO)NC(=O)C(C)(C)NC1=O [Example 285] (cyclo([Bip(4'-COOH)][Ala(1-bicyclo(1.1.1)pentyl)][Phe(4-COOH)]G[Pro(cis-4-F)][Trp(βS-Me,4-F)][Aib]SW[d(αMeD)][X6]Q[Dab]G[dPro(4R-(4-pyridylmethyl))]))	0.013
C[C@@H](c1c[nH]c2cccc(F)c12)[C@@H]1NC(=O)[C@@H]2C[C@H](F)CN2C(=O)CNC(=O)[C@H](Cc2ccc(C(=O)O)cc2)NC(=O)[C@H](Cc2ccncc2)NC(=O)[C@H](Cc2ccc(-c3ccc(C(=O)O)cc3)cc2)NC(=O)[C@H]2[C@@H](Cc3ccc(F)cc3)CCN2C(=O)CNC(=O)[C@H](CCN)NC(=O)[C@H](CCC(N)=O)NC(=O)[C@H](CN2CCOCC2)NC(=O)[C@@](C)(CC(=O)O)NC(=O)[C@H](Cc2c[nH]c3ccccc23)NC(=O)[C@H](CO)NC(=O)C(C)(C)NC1=O [Example 286] (cyclo([Bip(4'-COOH)][4Pal][Phe(4-COOH)]G[Pro(cis-4-F)][Trp(βS-Me,4-F)][Aib]SW[d(αMeD)][Ala(morpholin-4-yl)]Q[Dab]G[dPro(3S-(4-F-Bn))]))	0.01
